These are literature values, as cited in patent US20080014271A1, “NOVEL PHARMACEUTICAL COMPOSITIONS COMPRISING LEVETIRACETAM” (UCB, S.A., priority 2006, published 2008).

This data set deals with epilepsy.

Consider `CC[C@H](C(N)=O)N1CCCC1=O` [(R)-(+)-alpha-ethyl-2-oxo-1-pyrrolidine acetamide], for which the “Activity in the treatment of epilepsy” value was “completely lacks activity”.
